According to US20240164378A1, “SYNERGISTIC PLANT GROWTH STIMULANT COMPOSITIONS OF POTASSIUM MONO/DI-FORMATE WITH CARBOXYLIC ACIDS” (FERTIS INDIA PVT. LTD., priority 2021, published 2024):

Tests used:
paddy grains [1] = test: Total phenol estimation in paddy grains; assay type: in vivo; settings: treatment applied with farmer practice (NPK)
paddy grains [2] = test: Total protein content in paddy grains; assay type: in vivo; settings: treatment applied with farmer practice (NPK)

| Structure (SMILES) | Total phenol Conc ppm in paddy grains (paddy grains [1]) | % of Protein (total protein content in paddy grains) (paddy grains [2]) |
| --- | --- | --- |
| CC1=CC(=O)CC(C)(C)[C@@]1(O)/C=C/C(C)=C\C(=O)O [Abscisic acid] | 18.78 ppm | 0.008% |
| C=C1C[C@]23C[C@@]1(O)CC[C@H]2[C@@]12C=C[C@H](O)[C@@](C)(C(=O)O1)[C@H]2[C@@H]3C(=O)O [Gibberellic acid] | 16.7 ppm | 0.008% |
| COc1ccc2[nH]cc(CCNC(C)=O)c2c1 [Melatonin] | 17.9 ppm |  |
| O=CO.O=C[O-].[K+] [Potassium diformate] | 19.97 ppm | 0.012% |
| O=C[O-].[K+] [Potassium formate] | 19.88 ppm | 0.011% |
